One test concerns Entamoeba histolytica. Description: Antiprotozoal activity against Entamoeba histolytica HM-1:IMSS. The format is functional, organism-based.
A further test is filed under the species Rattus norvegicus. The test is described as follows: Antidiarrheal activity in rat assessed as inhibition of charcoal-gum acacia-induced hyperperistalsis. In kind it is functional. The following applies: read-out: ID50 (the source's name).
A further test concerns Giardia intestinalis. Description: Antiprotozoal activity against Giardia lamblia IMSS:1090:1. In kind it is functional, organism-based. The following applies: Giardia duodenalis.

These results are taken from ChEMBL document CHEMBL3108675, “Structure, absolute configuration, and antidiarrheal activity of a thymol derivative from Ageratina cylindrica” (J Nat Prod, 2014).

Counter-ions that a name gives are not always drawn.

One may read the IC50 as the midpoint of a concentration-inhibition curve. For the molecule `Cc1ncc([N+](=O)[O-])n1CCO` [METRONIDAZOLE], the IC50 in the test on Entamoeba histolytica was 0.23 µM.
As for `CC(C)C(=O)Oc1cc(C=O)c(O)cc1[C@@]1(COC(=O)c2ccccc2)CO1`, the ED50 in the test filed under Rattus norvegicus came out at 0.85 µmol/kg. Also, the values for the IC50 in the test on Giardia intestinalis and in the test with Entamoeba histolytica were 167 µM and 185 µM, respectively.
As to `Oc1cc(O)c2c(c1)OC(c1ccc(O)c(O)c1)C(O)C2` (stereo not drawn) [CATECHIN], the IC50 in the test with Giardia intestinalis came out at 117 µM; in the test with Entamoeba histolytica it was 226 µM.
On to `CN(C)C(=O)C(CCN1CCC(O)(c2ccc(Cl)cc2)CC1)(c1ccccc1)c1ccccc1` [LOPERAMIDE HYDROCHLORIDE], for which the ED50 in the test listed under Rattus norvegicus was 0.2 µmol/kg.
`CC[C@H]1CN2CCc3cc(OC)c(OC)cc3[C@@H]2C[C@@H]1C[C@H]1NCCc2cc(OC)c(OC)cc21` [EMETINE] gave an IC50 with Giardia intestinalis of 0.83 µM. This counts as sub-micromolar.
